Consider 19 compounds from US20240382471A1, “GLUCAGON-LIKE PEPTIDE-1 RECEPTOR MODULATORS AND USES THEREOF” (HEPAGENE THERAPEUTICS (HK) LIMITED, priority 2021, published 2024).

The target in the first test is T1, GLP1R (Homo sapiens, UniProt P43220). The test can be described thus: GLP1R cAMP assay (HTRF cAMP detection, agonist activity). The class given is cell-based. Further details: host or cells: Flp-In-293. Particulars: Flp-In-293-GLP1R cells, 30 min at 37° C., read-out: EC50 (nM) Assay 1. As for the experimental part: GLP1R-mediated agonist activity was determined with a cell-based functional assay utilizing an HTRF (Homogeneous Time-Resolved Fluorescene) cAMP detection kit that measures CAMP levels in the cell. Reagents and equipment used in the assay are listed below, followed by the protocol.
• 1) Cell Line: Flp-In-293-GLP1R (constructed by Pharmaron Beijing Co., Ltd) • 2) Complete Medium: DMEM+10% FBS+1×Penicillin-Streptomycin+200 μg/mL HB • 3) Assay Buffer: 1×HBSS+20 mM HEPES+0.1% BSA+500 μM IBMX
• a) Seed Flpin-293-GLP1R cells at 20,000 cells/well into 384 well assay plate (6007680-50, PE) using complete medium. • b) Prepare 4×compound working solution with assay buffer. • c) Add 5 μL 4×compound working solution into cell plate, incubate 30 min at 37° C. • d) Dilute Eu-cAMP tracer (1/50) with lysis buffer and add 10 μl/well to assay plate. • e) Dilute Ulight-anti-cAMP (1/150) with lysis buffer and add 10 μl/well to assay plate. • f) Incubate 1 h at RT. • g) Read the plate at wavelengths of 665 nm and 615 nm on Envision 2105 plate reader.
(§1) • 3.1% Activity is calculated as follow:
% Activity=100−(Signalcmpd−SignalAve_PC)/(SignalAve_VC−SignalAve_PC)×100. • 3.2 Calculate EC50 and Plot effect-dose curve of cmpds:
Y=Bottom+(Top−Bottom)/(1+10^((Log EC50−X)*Hill Slope)) • X: log of agonist concentration; Y: % Activity.
Target sequence in this assay (P43220 24-463, species assumed): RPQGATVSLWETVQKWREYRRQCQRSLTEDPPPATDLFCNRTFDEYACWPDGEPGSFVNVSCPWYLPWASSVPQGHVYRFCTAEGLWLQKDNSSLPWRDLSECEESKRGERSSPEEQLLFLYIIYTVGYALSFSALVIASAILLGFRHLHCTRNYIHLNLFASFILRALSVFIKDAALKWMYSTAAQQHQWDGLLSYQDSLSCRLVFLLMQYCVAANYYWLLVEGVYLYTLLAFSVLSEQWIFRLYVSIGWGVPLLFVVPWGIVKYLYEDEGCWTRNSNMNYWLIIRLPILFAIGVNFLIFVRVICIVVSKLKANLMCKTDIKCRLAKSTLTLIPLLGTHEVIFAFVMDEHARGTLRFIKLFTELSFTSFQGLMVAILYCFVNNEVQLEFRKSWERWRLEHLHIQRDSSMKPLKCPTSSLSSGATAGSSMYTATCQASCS
As to `N#Cc1ccc(COc2cccc(N3CC4CN(Cc5nc6ccc(C(=O)O)cc6n5CC5CCOC5)CC4C3)n2)c(F)c1` (stereo not shown) [Compound 2-24, 2-[(5-{6-[(4-cyano-2-fluorophenyl)methoxy]pyridin-2-yl}-hexahydropyrrolo[3,4-c]pyrrol-2-yl)methyl]-3-(oxolan-3-ylmethyl)-1,3-benzodiazole-5-carboxylic acid], the EC50 came to 3.05 nM.

With `COc1cc(C#N)ccc1COc1cccc(C23CCN(Cc4nc5ccc(C(=O)O)cc5n4C[C@@H]4CCO4)CC2C3)n1` (stereo partly drawn) [Compound 1-6, 2-((6-(6-((4-cyano-2-methoxybenzyl)oxy)pyridin-2-yl)-3-azabicyclo[4.1.0]heptan-3-yl)methyl)-1-(((S)-oxetan-2-yl)methyl)-1H-benzo[d]imidazole-6-carboxylic acid], the EC50 was determined as 0.003 nM. For the compound `O=C(O)c1ccc2nc(CN3CC4CN(c5cccc(OCc6ccc(Cl)cc6F)n5)CC4C3)n(C[C@@H]3CCO3)c2c1` (stereo partly drawn) [Compound 2-27, 2-((5-(6-((4-chloro-2-fluorobenzyl)oxy)pyridin-2-yl)hexahydropyrrolo[3,4-c]pyrrol-2 (1H)-yl)methyl)-1-(((S)-oxetan-2-yl)methyl)-1H-benzo[d]imidazole-6-carboxylic acid], the EC50 was above 4 nM. On the same count and under the same terms, for `N#Cc1ccc(COc2ncccc2N2CC3CCC(C2)N3Cc2nc3ccc(C(=O)O)cc3n2C[C@@H]2CCO2)c(F)c1` [Compound 2-16, 2-[(3-{2-[(4-cyano-2-fluorophenyl)methoxy]pyridin-3-yl}-3,8-diazabicyclo[3.2.1]octan-8-yl)methyl]-3-[(2S)-oxetan-2-ylmethyl]-1,3-benzodiazole-5-carboxylic acid] the value was above 4 nM. The same measure, in the same setting: the same measure for `N#Cc1ccc(COc2cccc(N3CC4CN(Cc5nc6ccc(C(=O)O)cc6n5C[C@@H]5CCCO5)CC4C3)n2)c(F)c1` (stereo partly drawn) [Compound 2-23, 2-[(5-{6-[(4-cyano-2-fluorophenyl)methoxy]pyridin-2-yl}-hexahydropyrrolo[3,4-c]pyrrol-2-yl)methyl]-3-[(2S)-oxolan-2-ylmethyl]-1,3-benzodiazole-5-carboxylic acid]: above 4 nM.

The target in another test is T1, GLP1R. The test can be described thus: GLP1R/CRE-Luc luciferase reporter gene assay (agonist activity). The following applies: HKE293-Human GLP1R/CRE-luc cells, 5 h at 37° C., read-out: EC50 (nM) Assay 2. The class given is cell-based. Further details: host or cells: HKE293 (so in the source). On the procedure:
GLP1R-mediated agonist activity was determined with a cell-based functional assay utilizing a britelite plus luciferase reporter gene assay system. The stable cell line overexpress GLP1R and target response element. The stimulation with GLP1R agonist results in the upregulation of intracellular cAMP, which regulate the activities of cAMP-response element binding protein (CREB) and CREB-Luc. Reagents and equipment used in the assay are listed below, followed by the protocol.
• 1) Cell Line: HKE293-Human GLP1R/CRE-luc • 2) Complete Medium: DMEM+10% FBS+1×Penicillin-Streptomycin+400 μg/mL G418
• a) Seed HKE293-Human GLP1R/CRE-luc cells at 20,000 cells/well into 384 well assay plate (6007680-50, PE) using complete medium and incubate overnight. • b) Prepare 6×compound working solution with Medium. • c) Add 5 μL 6×compound working solution into cell plate, incubate 5 h at 37° C. • d) Add 20 μl britelite plus Luciferase Assay Reagent into each well of 384-well assay plate. • e) Record the luminescence value on Envision plate reader.
as §1
% Activity=(Signalcmpd−SignalAve_VC)/(SignalAve_PC−SignalAve_VC)×100. • 3.2 Calculate EC50 and Plot effect-dose curve of cmpds:
Y=Bottom+(Top−Bottom)/(1+10^((Log EC50−X)*HillSlope)) • X: log of agonist concentration; Y: % Activity.
Background: A reporter such as luciferase makes a cellular process visible.
Target sequence in this assay (P43220 24-463): as the sequence (P43220 24-463, species assumed) above
`COc1c(COc2cccc(C34CCN(Cc5nc6c(OC)cc(C(=O)O)cc6n5C[C@@H]5CCO5)CC3C4)n2)ccc(C#N)c1F` (stereo partly drawn) [Compound 1-36, 2-((6-(6-((4-cyano-3-fluoro-2-methoxybenzyl)oxy)pyridin-2-yl)-3-azabicyclo[4.1.0]heptan-3-yl)methyl)-4-methoxy-1-(((S)-oxetan-2-yl)methyl)-1H-benzo[d]imidazole-6-carboxylic acid]: the concentration for a half-maximal effect (EC50) stood at 9.38 nM. Regarding `COCc1ccc(COc2cccc(C34CCN(Cc5nc6ccc(C(=O)O)cc6n5C[C@@H]5CCO5)CC3C4)n2)c(OC)c1` (stereo partly drawn) [Compound 1-15, 2-((6-(6-((2-methoxy-4-(methoxymethyl)benzyl)oxy)pyridin-2-yl)-3-azabicyclo[4.1.0]heptan-3-yl)methyl)-1-(((S)-oxetan-2-yl)methyl)-1H-benzo[d]imidazole-6-carboxylic acid], the EC50 turned out to be 439 nM. Same read-out and setting: for `COc1ccc(COc2cccc(C34CCN(Cc5nc6ccc(C(=O)O)cc6n5C[C@@H]5CCO5)CC3C4)n2)c(F)c1` (stereo partly drawn) [Compound 1-37, 2-((6-(6-((2-fluoro-4-methoxybenzyl)oxy)pyridin-2-yl)-3-azabicyclo[4.1.0]heptan-3-yl)methyl)-1-(((S)-oxetan-2-yl)methyl)-1H-benzo[d]imidazole-6-carboxylic acid] the value was 497 nM; for `COc1cc(C#N)ccc1COc1cccc(C23CCN(Cc4nc5c(C(C)=O)cc(C(=O)O)cc5n4C[C@@H]4CCO4)CC2C3)n1` (stereo partly drawn) [Compound 1-20, 4-acetyl-2-((6-(6-((4-cyano-2-methoxybenzyl)oxy)pyridin-2-yl)-3-azabicyclo[4.1.0]heptan-3-yl)methyl)-1-(((S)-oxetan-2-yl)methyl)-1H-benzo[d]imidazole-6-carboxylic acid], 9.67 nM. Same read-out and setting: the same measure for `COc1c(COc2cccc(C34CCN(Cc5nc6ccc(C(=O)O)cc6n5C[C@@H]5CCO5)CC3C4)n2)ccc(C#N)c1F` (stereo partly drawn) [Compound 1-29, 2-((6-(6-((4-cyano-3-fluoro-2-methoxybenzyl)oxy)pyridin-2-yl)-3-azabicyclo[4.1.0]heptan-3-yl)methyl)-1-(((S)-oxetan-2-yl)methyl)-1H-benzo[d]imidazole-6-carboxylic acid]: 168 nM; for `COc1cc(C#N)ccc1COc1ccnc(C23CCN(Cc4nc5c(OC)cc(C(=O)O)cc5n4C[C@@H]4CCO4)CC2C3)n1` (single isomer, unassigned) [Compound 1-38-B]: 0.28 nM; for `COc1cc(C#N)ccc1COc1ccnc(C23CCN(Cc4nc5c(OC)cc(C(=O)O)cc5n4C[C@@H]4CCO4)CC2C3)n1` (single isomer, unassigned) [Compound 1-38-A]: 16 nM. The same measure, in the same setting: for `COc1cc(C#N)ccc1COc1cncc(C23CCN(Cc4nc5ccc(C(=O)O)cc5n4C[C@@H]4CCO4)CC2C3)n1` (stereo partly drawn) [Compound 1-21, 2-((6-(6-((4-cyano-2-methoxybenzyl)oxy)pyrazin-2-yl)-3-azabicyclo[4.1.0]heptan-3-yl)methyl)-1-(((S)-oxetan-2-yl)methyl)-1H-benzo[d]imidazole-6-carboxylic acid] the value was 39.1 nM; for `COc1cc(Cl)ccc1COc1ccnc(C23CCN(Cc4nc5c(OC)cc(C(=O)O)cc5n4C[C@@H]4CCO4)CC2C3)n1` (stereo partly drawn) [Compound 1-47, 2-((6-(4-((4-chloro-2-methoxybenzyl)oxy)pyrimidin-2-yl)-3-azabicyclo[4.1.0]heptan-3-yl)methyl)-4-methoxy-1-(((S)-oxetan-2-yl)methyl)-1H-benzo[d]imidazole-6-carboxylic acid], 3.85 nM. `COc1cc(C#N)ccc1COc1nc(C23CCN(Cc4nc5c(OC)cc(C(=O)O)cc5n4C[C@@H]4CCO4)CC2C3)ccc1F` (stereo partly drawn) [Compound 1-28, 2-((6-(6-((4-cyano-2-methoxybenzyl)oxy)-5-fluoropyridin-2-yl)-3-azabicyclo[4.1.0]heptan-3-yl)methyl)-4-methoxy-1-(((S)-oxetan-2-yl)methyl)-1H-benzo[d]imidazole-6-carboxylic acid]: the EC50 is 0.46 nM.

`COc1cc(C#N)ccc1COc1cccc(C23CCN(Cc4nc5ccc(C(=O)O)cc5n4C[C@@H]4CCO4)CC2C3)n1` (single isomer, unassigned) [Compound 1-6-A]: the EC50 was 5.55 nM. With `COc1nc(C#N)ccc1COc1ccnc(C23CCN(Cc4nc5c(OC)cc(C(=O)O)cc5n4C[C@@H]4CCO4)CC2C3)n1` (stereo partly drawn) [Compound 1-35, 2-((6-(4-((6-cyano-2-methoxypyridin-3-yl)methoxy)pyrimidin-2-yl)-3-azabicyclo[4.1.0]heptan-3-yl)methyl)-4-methoxy-1-(((S)-oxetan-2-yl)methyl)-1H-benzo[d]imidazole-6-carboxylic acid], the EC50 turned out to be 2.68 nM. As to `CCn1cncc1Cn1c(CN2CCC3(c4nccc(OCc5ccc(C#N)cc5OC)n4)CC3C2)nc2c(OC)cc(C(=O)O)cc21` (stereo not shown) [Compound 1-45, 2-((6-(4-((4-cyano-2-methoxybenzyl)oxy)pyrimidin-2-yl)-3-azabicyclo[4.1.0]heptan-3-yl)methyl)-1-((1-ethyl-1H-imidazol-5-yl)methyl)-4-methoxy-1H-benzo[d]imidazole-6-carboxylic acid], the EC50 turned out to be 0.16 nM. The same measure, in the same setting: the same measure for `COc1cc(C#N)ccc1COc1ccnc(C23CCN(Cc4nc5c(Cl)cc(C(=O)O)cc5n4C[C@@H]4CCO4)CC2C3)n1` (stereo partly drawn) [Compound 1-46, 4-chloro-2-((6-(4-((4-cyano-2-methoxybenzyl)oxy)pyrimidin-2-yl)-3-azabicyclo[4.1.0]heptan-3-yl)methyl)-1-(((S)-oxetan-2-yl)methyl)-1H-benzo[d]imidazole-6-carboxylic acid]: 2.6 nM.

Broadly, the EC50 is the concentration at which the effect is half-maximal.
